# Active and inactive are the calls of the source. How the calls were made is not given here.
# Target: Voltage-gated potassium channel subunit beta-2 (Rattus norvegicus) (UniProt P62483)
# Test: retested enhancers of rat Kvbeta2 activity – biochemical, confirmation (AID 634)
# Settings: Rat Kvbeta2 enzymatic assay, slope read-out; stronger effect = lower value
# Sequence of Voltage-gated potassium channel subunit beta-2 (Rattus norvegicus) (P62483 whole entry, looked up): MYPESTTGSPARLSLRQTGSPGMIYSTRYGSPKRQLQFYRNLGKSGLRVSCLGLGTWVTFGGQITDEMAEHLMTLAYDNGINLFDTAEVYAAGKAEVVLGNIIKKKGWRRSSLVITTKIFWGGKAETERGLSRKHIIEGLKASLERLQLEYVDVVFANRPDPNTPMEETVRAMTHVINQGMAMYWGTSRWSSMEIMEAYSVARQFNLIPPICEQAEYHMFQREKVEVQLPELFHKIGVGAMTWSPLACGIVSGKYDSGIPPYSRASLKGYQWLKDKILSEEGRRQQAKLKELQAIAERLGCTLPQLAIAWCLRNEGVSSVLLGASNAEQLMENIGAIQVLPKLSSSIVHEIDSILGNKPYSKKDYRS
row,Structure (SMILES),slope
1,CN1C(=S)SC(C)(NO)C1(C)C (configuration not stated),-0.536
2,CCOC(=O)C1=C(N)OC(C)=C(C(=O)OCCOC)C12C(=O)Nc1ccccc12 (configuration not stated),0.0877 (inactive)
3,NS(=O)(=O)c1cc2c(cc1Cl)NC=NS2(=O)=O,0.0676 (inactive)
4,O=C(C1=C(O)C(=O)N(CCCN2CCOCC2)C1c1ccccn1)c1cc2ccccc2o1 (configuration not stated),0.134 (inactive)
5,C=CCn1c(SCC(=O)NCC2CCCO2)nc2scc(-c3ccco3)c2c1=O (configuration not stated),0.0642 (inactive)
6,O=C(NCc1cccs1)C(Cc1ccccc1)NS(=O)(=O)c1cccs1 (configuration not stated),0.0568 (inactive)
7,CC(c1ccco1)N(C(=O)c1ccc(S(=O)(=O)N2CCCCC2)cc1)c1ccccn1 (configuration not stated),0.0766 (inactive)
8,COc1cccc(Oc2ccc(N)cc2)c1,0.062 (inactive)
9,CCOC(=O)CNC(=O)Nc1ccccc1C(=O)OC,0.092 (inactive)
10,CCCCCC#CCC#CCC#CCC#CCCCC(=O)O,-0.0283 (inactive)
11,CCN(CC)CCCn1c(=S)[nH]c2cc(Cl)ccc2c1=O,0.133 (inactive)
12,Cc1ccc(N2C(=O)C3ON(c4ccccc4)C(c4ccncc4)C3C2=O)cc1 (configuration not stated),0.0514 (inactive)
13,O=C(NCCC1=CCCCC1)N[C@@H](Cc1ccccc1)C(=O)O,0.0842 (inactive)
14,COc1ccccc1C1/C(=C(/O)c2ccc(OC(C)C)cc2)C(=O)C(=O)N1c1cc(C)on1 (configuration not stated),0.0306 (inactive)
15,CC(=O)Oc1ccc2c(C)cc(=O)[nH]c2c1,0.0957 (inactive)
16,O=c1c2ccccc2[se]n1-c1ccccc1,-0.798
17,Cc1ccc2c(c1)[C@@H]1CN(C)CC[C@@H]1N2C(=O)Nc1cccc(C(F)(F)F)c1,-0.0275 (inactive)
18,CCOc1ccccc1Nc1nc2ccccc2[nH]1,0.0352 (inactive)
19,Cn1c(SCC(=O)Nc2ccc3c(c2)oc2ccccc23)nnc1-c1ccccc1,0.119 (inactive)
20,CCCCOc1ccc(-c2nnn(C(C)(C)C(=O)OC)n2)cc1,0.0535 (inactive)
21,CC(O)CNc1nc2c(c(=O)n(C)c(=O)n2C)n1CCc1ccccc1 (configuration not stated),0.0661 (inactive)
22,CCn1cc(C(=O)Nc2cc3c(cc2NC(C)=O)OCCO3)c(=O)c2ccc(C)nc21,0.112 (inactive)

# From PubChem BioAssay AID634 (Vanderbilt High Throughput Screening Facility, 2007)
